Measurements as given in patent US20080214606A1, “Methods for the Identification and Use of Compounds Suitable for the Treatment of Drug Resistant Cancer Cells” (The Government of the United States of America as …, priority 2004, published 2008).

These compounds were tested against ABCB1 (Homo sapiens, UniProt P08183) (assay: Correlation of ABCB1 expression with drug sensitivity across the NCI-60).
Procedure: Expression levels are measured by real-time quantitative RT-PCR using the LightCycler RNA Amplification SYBR Green kit and a LightCycler machine (Roche Biochemicals, Indianapolis, Ind.). Specific oligonucleotide probes are designed for each of the ABC transporters using DNAStar Primer Select (DNASTAR Inc.), and they may be synthesized at Lofstrand Laboratories (Gaithersburg, Md.). When possible, the amplicons are designed to encompass exon-intron boundaries to avoid amplification of genomic DNA. Since the Syber Green assay detects accumulation of double stranded DNA, primers are selected (from a battery consisting of about 200 primers) that amplified a single product of the correct size.
RT-PCR is carried out on 150 ng total RNA, in the presence of 250 nM specific primers. Following reverse transcription (20 min at 50° C.), the PCR reaction consists of 45 cycles of denaturation (15 sec at 95° C.), annealing (30 sec at 58° C.), and elongation (30 sec at 72° C.). No-template (water) reaction mixtures are prepared as negative controls.
During PCR amplification, fluorescence emission is measured and recorded in real time by the LightCycler. Crossing point values are calculated, using the LightCycler software package, by the Fit Points analysis method, with baseline fluorescence set at 1. The SyberGreen assay measures accumulation of double-stranded products, and the appearance of primer dimers limits quantitation at high cycle numbers. […] The raw results are expressed as number of cycles to reach the crossing point. If the desired product is not detected, the corresponding value is adjusted to crossing points indicating no expression. To assess the contribution of experimental artifacts, selected cell lines are assessed in replicate.
Both sets are available at http://discover.nci.nih.gov. The two are combined to form a joint dataset that includes 1429 compounds.
To determine quantitatively how well the 47 genes cluster the cell lines by their tissues of origin, a statistical method is employed wherein the kappa statistic is used to indicate how well the observed clusters correspond to the nine tissue-of-origin classifications. […] To control the overall false type 1 error rate, both a step-down procedure (Westfall and Young, 1993, Resampling-Based Multiple Testing: Examples and Methods for p-value Adjustment (New York: Wiley)) and a step-up procedure (Reiner et al., 2003, Bioinformatics 19:368-375) were employed to adjust for multiple testing of all 47 genes simultaneously. In the Benjamini-Hochberg procedure the p-values are computed in the standard way by permutation, assuming that all distributions are exchangeable: the number of values in the permuted data with correlations over a threshold, divided by the number of compounds and by the number of permutations. In this analysis, the False Discovery Rate (q-value) at which each compound would be declared was calculated using the step-up procedure for positively correlated test statistics (again true because all correlations being compared are computed against the same ABC gene): in this procedure the first q-value for the largest correlation is the Bonferroni-corrected p-value for that gene; then further q-values are calculated as qj=max(pj*1429/j, qj-1). This procedure limits the expected proportion of false positives in the list 1, . . . , j to at most qj.

Sequence of ABCB1 (P08183 whole entry): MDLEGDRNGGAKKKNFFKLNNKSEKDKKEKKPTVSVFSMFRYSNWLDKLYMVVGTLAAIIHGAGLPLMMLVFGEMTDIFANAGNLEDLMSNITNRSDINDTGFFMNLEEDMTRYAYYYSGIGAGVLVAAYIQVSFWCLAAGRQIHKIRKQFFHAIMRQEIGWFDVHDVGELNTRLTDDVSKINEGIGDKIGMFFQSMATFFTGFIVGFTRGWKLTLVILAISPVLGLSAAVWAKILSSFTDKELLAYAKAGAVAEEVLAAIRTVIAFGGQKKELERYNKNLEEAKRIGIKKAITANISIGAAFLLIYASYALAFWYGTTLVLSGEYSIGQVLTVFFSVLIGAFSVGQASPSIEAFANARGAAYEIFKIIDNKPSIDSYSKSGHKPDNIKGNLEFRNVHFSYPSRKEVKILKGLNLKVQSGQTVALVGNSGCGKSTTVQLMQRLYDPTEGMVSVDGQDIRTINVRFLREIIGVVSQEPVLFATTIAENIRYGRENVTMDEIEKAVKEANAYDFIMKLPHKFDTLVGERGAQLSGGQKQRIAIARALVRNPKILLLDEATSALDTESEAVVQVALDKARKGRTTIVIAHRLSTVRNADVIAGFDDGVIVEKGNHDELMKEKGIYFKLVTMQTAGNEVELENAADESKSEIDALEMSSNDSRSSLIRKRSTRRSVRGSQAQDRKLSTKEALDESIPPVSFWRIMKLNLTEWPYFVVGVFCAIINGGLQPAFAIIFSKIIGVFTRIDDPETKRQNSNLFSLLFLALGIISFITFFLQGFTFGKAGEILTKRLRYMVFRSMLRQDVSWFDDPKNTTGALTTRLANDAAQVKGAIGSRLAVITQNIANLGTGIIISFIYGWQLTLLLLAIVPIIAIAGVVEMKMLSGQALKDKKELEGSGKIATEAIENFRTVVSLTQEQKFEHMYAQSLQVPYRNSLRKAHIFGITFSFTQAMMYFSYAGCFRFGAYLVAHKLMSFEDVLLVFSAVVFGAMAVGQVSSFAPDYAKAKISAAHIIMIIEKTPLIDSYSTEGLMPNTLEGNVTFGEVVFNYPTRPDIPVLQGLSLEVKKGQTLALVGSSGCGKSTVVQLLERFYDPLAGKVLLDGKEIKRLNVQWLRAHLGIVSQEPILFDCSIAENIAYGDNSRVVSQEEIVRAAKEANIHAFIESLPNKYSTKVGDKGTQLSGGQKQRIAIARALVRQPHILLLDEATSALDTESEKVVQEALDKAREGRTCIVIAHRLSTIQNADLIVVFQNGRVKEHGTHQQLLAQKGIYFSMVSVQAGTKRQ

Compared with `CC(C)=CCC[C@@H](C)c1c2[nH]c3ccccc3sc-2c(C)c(=O)c1=O` [NSC697130], `CC(C)=CCC[C@@H](C)C1=C(O)C(Nc2ccccc2)=C(C)C(=O)C1=O` [NSC697129] is higher in “Correlation of antiproliferative activity with ABCB1 expression” value (“Correlation … with ABCB1 expression” for short): 0.3925 for the first, 0.4663 for the second.

Going from `CC(C)OC(=S)Nc1ccc(Cl)c(/C=N/OC(C)(C)C)c1` [NSC 645542] to `CNC(=O)C(C)C1CCC2(C)C=CC(=O)C(C)=C2C1O` (stereo not drawn) [NSC 623069], the “Correlation … with ABCB1 expression” value rises from 0.3924 to 0.459.

Going from `O=C1Sc2sc(=S)sc2SC1c1ccccc1` (stereo not drawn) [NSC 627452] to `O=C1CSc2sc(=S)sc2S1` [NSC 627451], the “Correlation … with ABCB1 expression” value rises from 0.3534 to 0.3894.

Compared with `Cc1ccc(S(=O)(=O)O)cc1.N/C(=N\N=C/c1cc(Br)cc(Br)c1O)NO` [NSC 371168], `CCC1=NC(N/N=C/c2ccccc2O)=N/C1=C\c1ccccc1O` [NSC 697678] is higher in “Correlation … with ABCB1 expression” value: 0.3643 for the first, 0.4314 for the second.

First: CSc1nc2nn(Cc3ccccc3)cc2c(=O)[nH]1 [NSC 622927]
Second: O=C(/C=C/c1ccccc1)CSc1nc2ccc(I)cc2c(=O)n1Cc1ccccc1 [NSC 715729]
The “Correlation … with ABCB1 expression” value of the first is higher: 0.4001 for the first, 0.3544 for the second.

First: C=C(C)[C@@H]1CCc2c(O)c(O)c(=O)cc(C)c2C1 [NSC 310618]
Second: CNC1=C(C)C(=O)C(O)=C([C@H](C)CCC=C(C)C)C1=O [NSC697128]
The “Correlation … with ABCB1 expression” value of the first is lower: 0.3698 for the first, 0.4349 for the second.

First: COc1c(C)c(C/C=C(\C)CCCCO[Si](c2ccccc2)(c2ccccc2)C(C)(C)C)c(OC)c(OC)c1OC [NSC 687141]
Second: O=C1c2c(nc3ccccc3c2-c2ccccc2)CN1Nc1ccccn1 [NSC 648072]
The “Correlation … with ABCB1 expression” value of the first is higher: 0.3774 for the first, 0.3579 for the second.

Going from `CN(C)c1nc(N(C)C)nc(N(C)C)n1` [NSC 13875] to `Cc1cc(C)c(C2=NO[C@@H]3[C@H]2C(=O)C=C2N(Cc4ccccc4)CCO[C@@]23O)c(C)c1` [NSC 627025], the “Correlation … with ABCB1 expression” value falls from 0.4856 to 0.3511.

Going from `O=C(N[C@@H](c1ccccc1)[C@@H](O)C(=O)OCc1ccc2c(c1)OCO2)c1ccccc1` [NSC 625349] to `Nc1nc(N)c2nc(CNc3ccc(C(=O)NC(CCC(=O)O)C(=O)O)cc3F)cnc2n1.O=C(O)C(F)(F)F` (stereo not drawn) [NSC 607301], the “Correlation … with ABCB1 expression” value falls from 0.3935 to 0.3523.

Compared with `CC(C)=CCC[C@@H](C)c1c2[nH]c3ccccc3sc-2c(C)c(=O)c1=O` [NSC697130], `CC(C)=CCC[C@@H](C)C1=C(O)C(Nc2ccccc2)=C(C)C(=O)C1=O` [NSC697129] is higher in “Pearson's Correlation Coeff” value: 0.4582 for the first, 0.4854 for the second.

First: COc1ccc2cc(CNCCCCCCCCNCc3ccc4cc(OC)ccc4c3)ccc2c1 [NSC676427]
Second: Oc1ccc2ccccc2c1-c1nnc(CCCCCCCCc2nnc(-c3c(O)ccc4ccccc34)o2)o1 [NSC697189]
The “Pearson's Correlation Coeff” value of the first is lower: 0.1843 for the first, 0.2621 for the second.

First: CC[C@@]1(O)C[C@H](O[C@H]2C[C@H](N(C)C)[C@H](O)[C@H](C)O2)c2c(cc3c(c2O)C(=O)c2c(O)ccc(O)c2C3=O)[C@H]1C(=O)OC [NSC267229]
Second: COc1ccc(-c2oc3cc(O)c(OC)c(O)c3c(=O)c2O)cc1 [NSC641548]
The “Pearson's Correlation Coeff” value of the first is higher: 0.3505 for the first, 0.2632 for the second.

Compared with `O=C1c2ccccc2C(=O)c2c1nc1ccccc1c2-c1cncc(-c2c3c(nc4ccccc24)C(=O)c2ccccc2C3=O)c1` [NSC694490], `C=C(C=O)c1c2c(nc3ccccc13)C(=O)c1ccccc1C2=O` [NSC694489] is higher in “Pearson's Correlation Coeff” value: 0.2438 for the first, 0.3742 for the second.

Compared with `O=c1cc(-c2ccccc2F)[nH]c2cc3c(cc12)OCO3` [NSC656158], `Cc1c(-c2ccc(-c3ccccc3F)cc2)nc2ccc(F)cc2c1C(=O)O` [NSC368390] is higher in “Pearson's Correlation Coeff” value: 0.2218 for the first, 0.2331 for the second.

Compared with `CN(C)CCNc1ccc2nnn3c4ccc(Cl)cc4c(=O)c1c23` [NSC645818], `Cc1c(CNc2ccc(Cl)c(C(=O)NC(CC(=O)O)C(=O)O)c2)ccc2nc(N)nc(N)c12` (stereo not drawn) [NSC132483] is lower in “Pearson's Correlation Coeff” value: 0.3377 for the first, 0.3151 for the second.

First: CCc1nc(N)nc(N)c1-c1ccc(Cl)c(N=[N+]=[N-])c1 [NSC319947]
Second: CCc1nc(N)nc(N)c1-c1ccc([N+](=O)[O-])c(Cl)c1 [NSC602313]
The “Pearson's Correlation Coeff” value of the first is higher: 0.3098 for the first, 0.3012 for the second.

Compared with `C[C@]12CC[C@@H]3c4cc(OCC(F)(F)F)c(O)cc4/C(=N/O)C[C@H]3[C@@H]1CC[C@@H]2O` [NSC681683], `CCOc1cc2c(cc1O)C(=O)C[C@@H]1[C@@H]2CC[C@]2(C)[C@@H](O)CC[C@@H]12` [NSC679431] is higher in “Pearson's Correlation Coeff” value: 0.2079 for the first, 0.2672 for the second.

Going from `CCc1nc(N)nc(N)c1-c1ccc(NCCc2ccccc2)c([N+](=O)[O-])c1` [NSC382049] to `CCc1nc(N)nc(N)c1-c1ccc(N(C)Cc2ccccc2)c([N+](=O)[O-])c1` [NSC382035], the “Pearson's Correlation Coeff” value falls from 0.3279 to 0.3180.

First: N#Cc1c(Nc2ccccc2)[n+]([O-])c2ccc(Cl)cc2[n+]1[O-] [NSC693869]
Second: N#Cc1c(N2CCN(c3ccc([N+](=O)[O-])cc3)CC2)[n+](=O)c2ccc(Cl)cc2n1[O-] [NSC688493]
The “Pearson's Correlation Coeff” value of the first is higher: 0.2805 for the first, 0.2012 for the second.

Going from `CCc1c(CNc2ccc(C(=O)NC(CC(=O)O)C(=O)O)cc2)ccc2nc(N)nc(N)c12` (stereo not drawn) [NSC184692] to `Nc1nc(N)c2cc(CNc3ccc(C(=O)NC(CC(=O)O)C(=O)O)c(Cl)c3)ccc2n1` (stereo not drawn) [NSC134033], the “Pearson's Correlation Coeff” value falls from 0.2971 to 0.2800.

Compared with `O=[N+]([O-])c1ccc(O)c(/C=N/NC(=S)N2CCCCC2)c1` [NSC689530], `Cc1ccc(C2COc3cc(O)c(O)cc3C2)cc1` (stereo not drawn) [NSC600286] is lower in “Pearson's Correlation Coeff” value: 0.3398 for the first, 0.2177 for the second.

First: O=S1(=O)CCC2=CC(C(F)(F)F)=CC(C(F)(F)F)=CN21 [NSC605440]
Second: COc1ccc2oc(S(=O)(=O)N3CC(CCl)c4ccc(N)cc43)cc2c1 (stereo not drawn) [NSC696124]
The “Pearson's Correlation Coeff” value of the first is higher: 0.2658 for the first, 0.2104 for the second.

Compared with `CNC1=C(C)C(=O)C(O)=C([C@H](C)CCC=C(C)C)C1=O` [NSC697128], `CC1=C(N2CC2)C(=O)C(C)=C(N2CC2)C1=O` [NSC646714] is lower in “Pearson's Correlation Coeff” value: 0.4568 for the first, 0.3262 for the second.

Compared with `O=[N+]([O-])C(=C\c1cccs1)/C(=C/c1cccs1)[N+](=O)[O-]` [NSC693131], `O=C(NO)c1cccc(OCc2ccc(Br)cc2)c1` [NSC692756] is higher in “Pearson's Correlation Coeff” value: 0.2788 for the first, 0.4093 for the second.

Going from `Cc1c2cnccc2c(C)c2c1c1ccccc1n2CCOC(=O)c1ccccc1` [NSC163443] to `Cc1cc(C)n(-c2nc3ccccc3c(=O)[nH]2)n1` [NSC691081], the “Pearson's Correlation Coeff” value rises from 0.2891 to 0.4305.

First: c1cc2n(n1)CCN2 [NSC51143]
Second: Nc1ccn([C@@H]2C=C(CO)[C@@H](O)[C@H]2O)c(=O)n1 [NSC375575]
The “Pearson's Correlation Coeff” value of the first is higher: 0.4328 for the first, 0.2400 for the second.

With `CC(C)(C)N1CC1CNC(=O)C(=O)NCC1CN1C(C)(C)C` (stereo not drawn) [NSC298276] the “Pearson's Correlation Coeff” value was 0.3398.

With `O=c1[nH]cc(F)c(=O)[nH]1` [5-fluorouracil, reference compound] the “Relationship between drug sensitivity and ABCB1 expression (in words)” value was “non-correlated or positively correlated”.
`CC[C@]1(O)C[C@@H]2CN(CCc3c([nH]c4ccccc34)[C@@](C(=O)OC)(c3cc4c(cc3OC)N(C)[C@H]3[C@@](O)(C(=O)OC)[C@H](OC(C)=O)[C@]5(CC)C=CCN6CC[C@]43[C@@H]65)C2)C1` [vinblastine, reference compound] was tested, and the “Relationship between drug sensitivity and ABCB1 expression (in words)” value was “striking inverse correlations”.

Going from `CCC(C)SC1SCC2C(=O)N(C)C3(CC3C)C(=O)OCC(NC(=O)c3nc4ccccc4cc3O)C(=O)NC(C)C(=O)N(C)C1C(=O)N(C)C1(CC1C)C(=O)OCC(NC(=O)c1nc3ccccc3cc1O)C(=O)NC(C)C(=O)N2C` (stereo not drawn) [NSC 630678] to `C[n+]1c2ccccc2n2c3ccccc3c(NCCCn3ccnc3)c(C#N)c21.Cc1ccc(S(=O)(=O)[O-])cc1` [NSC694268], the Correlation rises from −0.7029 to −0.5914.

Compared with `CCN(CC)CC[n+]1ccc2c(C)c3[nH]c4ccccc4c3c(C)c2c1` [NSC 359449], `C[N+]1(C)C/C(=C\C=C\c2ccccc2)C(=O)/C(=C/C=C/c2ccccc2)C1.[I-]` [NSC 636679] is higher in Correlation: −0.7108 for the first, −0.5530 for the second.

`[Se]=P(c1ccccc1)(c1ccccc1)c1ccc(C(c2ccccc2)=P(c2ccccc2)(c2ccccc2)c2ccccc2)cc1` [NSC 676864] gave a Correlation of −0.6546.
